Measurements taken from patent publication US20230002446A1, “ANTI-INFLAMMATORY AGENTS” (The University of Sydney, priority 2019, published 2023).
Where a SMILES comes first, the peptide text is derived from it. [ ]: non-standard residue; d: D form. AEEA = NCCOCCOCC(=O)O

How the values were obtained:
C57BL/6 mice [1] = assay: contact hypersensitivity model (DNFB-induced contact dermatitis); type: in vivo
Description: FIG. 2—Peptide administration reduces inflammation in a mouse model of contact dermatitis and reduces myeloid inflammatory infiltrate. (A) Experimental outline of DNFB-induced contact dermatitis. (B) Ear thickness of peptide RP23 (SEQ ID NO:12) treated mice, repeated 3 times. […] Data are presented as mean±S.E.M. Statistical significance was determined (B) by multiple t tests (C) by ANOVA with Dunnett's multiple comparison test, *p<0.05, **p<0.01, ***p<0.001.
FIG. 3—The peptide effect is dependent on the peptide sequence and dose. (A) PBS, scrambled peptide or peptide MUC1SP ([…]; SEQ ID NO: 3) was injected subcutaneously seven days prior to sensitising C57BL/6 mice (n=5) with DNFB on the abdomen. […] (B) A comparison of the immunosuppressive effect of peptide RP23 (SEQ ID NO:12) and MUC1SP (SEQ ID NO: 3). (C) SEQ ID NO:12 suppressed immunity in a dose dependent manner. (D) Addition of GM-CSF to the SEQ ID NO:12 injection abrogated the immune suppression. Data are the means±S.E.M.
FIG. 8—Effects of peptide variants on the inflammatory response. Mice received one injection of PBS or one of the following peptides (10 nmol) subcutaneously at the abdomen (A) peptide RP23 (SEQ ID NO: 12), peptide AF594-RP23 (SEQ ID NO: 21), peptide K4-G3-MUC1SP (SEQ ID NO:22) or MUC1SP C fragment (SEQ ID NO: 2). Five days later, mice were challenged with DNFB at a distal site, on the ears. The thickness of the ears was measured over 72 hours.
FIG. 9—Effects of further peptide variants, without N-terminal methionine, on the inflammatory response in a model of contact dermatitis. Mice received one injection of PBS, RP23 (SEQ ID NO:12) (10 nmol) or one of the peptide variants indicated in the table including SEQ ID NO: 32 and 35 as described herein (equivalent molar amount of RP23), subcutaneously at the abdomen. Photoleucine replaces leucine where indicated, these molecules used for photo-crosslinking studies. Seven days later, abdominal skin was sensitised with a contact irritant (DNFB) and five days later, mice were challenged with DNFB at a distal site, on the ears. (A) Specific increase in ear thickness over 72 hours, data are the means+/−SEM (n=6). Statistical significance was determined by ANOVA with Dunnett's multiple comparison test to PBS only control, **p<0.01. (B) Specific increase in ear thickness at 24 hours post-challenge. Data are the means+/−SEM (n=6). Statistical significance was determined by t-test to relevant control, as indicated, *p<0.05, **p<0.01, ns=not significant.
The abdomens of 8-week old female C57BL/6 mice (Australian BioResources) were coarse shaved. A minimum of 24 hours later, RP23 (SEQ ID NO:12) was delivered via sub-cutaneous injection at the abdomen in 50 μl phosphate buffered saline. Seven days later, mice were topically sensitised to 1-fluoro-2,4-dinitrobenzene (DNFB, 0.5 vol %) in olive oil/acetone (1:4, v/v, 30 μl) via application to the shaved abdomen. Five days after sensitisation, mice were challenged on the ears with topical DNFB (0.25 vol %) in olive oil/acetone (1:4, v/v, 15 μl per ear). Ear thickness was measured daily using manual callipers from immediately before challenge, up to 96 hours post challenge. Positive controls for ear swelling consisted of mice that were injected with PBS instead of RP23. Negative or irritant controls consisted of a group of mice that received the DNFB challenge, but not the sensitisation. The average of the change in ear thickness from this control group was subtracted from the change in ear thickness of other samples to account for non-specific irritation due to the application of DNFB, olive oil and acetone.
The inventors then conducted additional in vivo studies, using a model of contact hypersensitivity, to determine the portion of RP23 responsible for its immunomodulatory activity. Mice received one injection of peptide (10 nmol) subcutaneously at the abdomen, seven days prior to sensitisation of the skin with a contact irritant (DNFB). […]

dermal dendritic cells = assay: intradermal injection into healthy human skin explants, myeloid cell activation; type: cell-based; conditions: intra-dermal injection, overnight culture
Description: FIG. 7—Peptide administration reduces spontaneous myeloid cell activation in human skin. (A) Peptide RP23 (SEQ ID NO: 12) was injected intradermally into healthy human skin grafts. Myeloid cell activation was assessed after overnight culture. (B) The effect of peptide RP23 on the spontaneous upregulation of activation markers on myeloid cell subsets in the skin. Data are representative of 6 donors.
Using an in vitro culture system, it was determined whether RP23 could suppress the activity of specific pro-inflammatory immune cells. […] The culture of murine bone marrow derived macrophages with RP23 led to reduced IL-6, MCP-1 and TNF release after LPS-stimulation (FIG. 5b). Similarly, primary human blood derived macrophages had reduced IL-6 and IL-12/23 release after stimulation with either LPS or imiquimod (FIG. 5c).

C57BL/6 mice [2] = assay: T-cell subsets by flow cytometry in imiquimod-induced psoriasis model; type: in vivo
Description: FIG. 11. RP23 treatment reduces TCRαβ^+ T-cells in the back skin and increases CD4^+ T-regulatory cells in the lymph nodes of mice in an imiquimod-induced psoriasis model. C57BL/6 female mice received PBS or RP23 injection at day −1, then Aldara cream (5% imiquimod, 57.5 mgs) was applied daily (days 0-4) to the backs to induce psoriasis. At day 15, skin and inguinal lymph nodes were analysed by flow cytometry to quantitate (A) T-cell subsets as a proportion of total leukocytes (CD45^+) in the psoriatic back skin, (B) number of CD3^+CD4^+ TCRαβ T-cells in the skin draining lymph nodes (inguinal), with transcription factor staining, to identify cells with a regulatory phenotype (FoxP3^+). Data are the means+/−SEM (n=4-5). Statistical significance was determined by multiple t-tests, *p<0.05.
C57BL/6 female mice received PBS or RP23 injection at day −1, then Aldara cream (5% imiquimod, 57.5 mgs) was applied daily (days 0-4) to the backs of mice to induce psoriasis. At day 15, skin and inguinal lymph nodes were analysed by flow cytometry to quantitate T-cell subsets as a proportion of total leukocytes (CD45+) in the psoriatic back skin, (FIG. 11A).
CD3+CD4+ TCRαβ T-cells in the skin draining lymph nodes (inguinal) were phenotyped by transcription factor staining and flow cytometry to identify cells with a regulatory phenotype (i.e., FoxP3+).

[3] = test system: full thickness human skin explants
Description: RP23^AF594 in a stock emulsion was applied topically to full thickness human skin explants and cultured for 24 hours. Frozen sections were analysed by fluorescence microscopy.
RP23^AF594 was formulated for topical application in an adapted stock emulsion consisting of dimethicone, liquid paraffin, 4-chloro-3-methylphenol, cetrimide and octadecan-1-ol. This was applied topically (7 mg/cm^2, 10 nmol RP23) to full thickness human skin explants and cultured for 24 hours. Frozen sections were prepared for and analysed by fluorescence microscopy.

**Q.** For `CSCC[C@H](NC(=O)COCCOCCNC(=O)[C@H](CCCCN)NC(=O)[C@H](CCCCN)NC(=O)[C@H](CCCCN)NC(=O)[C@@H](N)CCCCN)C(=O)N[C@H](C(=O)N1CCC[C@H]1C(=O)NCC(=O)N[C@H](C(=O)N[C@@H](CCC(N)=O)C(=O)N[C@@H](CO)C(=O)N1CCC[C@H]1C(=O)N[C@@H](Cc1ccccc1)C(=O)N[C@@H](Cc1ccccc1)C(=O)N[C@@H](CC(C)C)C(=O)N[C@@H](CC(C)C)C(=O)N[C@@H](CC(C)C)C(=O)N[C@@H](CC(C)C)C(=O)N[C@@H](CC(C)C)C(=O)N[C@H](C(=O)N[C@H](C(=O)N[C@@H](CC(C)C)C(=O)N[C@H](C(=O)N[C@H](C(=O)N[C@H](C(=O)O)C(C)C)C(C)C)[C@@H](C)O)C(C)C)[C@@H](C)O)[C@@H](C)O)[C@@H](C)O` [RP23] (H-KKKK[AEEA]MTPGTQSPFFLLLLLTVLTVV-OH), which “inflammatory response (ear thickness over 72 hours)” value (C57BL/6 mice [1]; 10 nmol subcutaneously at the abdomen, compared to PBS (FIG. 8)) is on record?
**A.** led to a reduced inflammatory response

**Q.** What about the “immune suppression compared to SEQ ID NO: 3 (MUC1SP)” value (C57BL/6 mice [1]; FIG. 3b) of the same compound?
**A.** without significantly altering immune suppression

**Q.** What about the “suppression of ear swelling with GM-CSF included” value (C57BL/6 mice [1]; GM-CSF added to the injection (FIG. 3d)) of the same compound?
**A.** abrogated much of the suppression

**Q.** What about the “reduction in ear swelling compared to controls” value (C57BL/6 mice [1]; dose-response, 2, 5 or 10 nmol) of the same compound?
**A.** up to 100%

**Q.** What about the “elicitation of inflammation (ear thickness)” value (C57BL/6 mice [1]; single nanomolar injection prior to sensitisation) of the same compound?
**A.** significantly suppress elicitation of inflammation

**Q.** What about the “inflammatory myeloid cell skin infiltrate” value (C57BL/6 mice [1]; single nanomolar injection prior to sensitisation, flow cytometry 72 hours post challenge) of the same compound?
**A.** reduction

**Q.** And the “spontaneous activation of dermal dendritic cells” value (dermal dendritic cells)?
**A.** reduced spontaneous activation of dermal dendritic cells

**Q.** What about the “TCRαβ+ T-cells in the skin of psoriatic mice” value (C57BL/6 mice [2]; FIG. 11A) of the same compound?
**A.** reduction in TCRαβ+ T-cells

**Q.** What about the “number of FoxP3-expressing CD3+CD4+ TCRαβ T-cells in skin draining lymph nodes” value (C57BL/6 mice [2]; inguinal lymph nodes, day 15, with or without T-bet or Rorγt) of the same compound?
**A.** significant increase

**Q.** What about the “proportion of total CD4+ and CD8+ T-cells in the back skin” value (C57BL/6 mice [2]; injection day -1, day 15, proportion of CD45+ leukocytes) of the same compound?
**A.** reduced the proportion of total CD4+ and CD8+ T-cells

**Q.** What about the “penetration of human skin when topically applied” value [3] of the same compound?
**A.** able to penetrate the stratum corneum and basement membrane
